The molecules below were run on bovine tubulin (assay: In vitro tubulin polymerization assay (turbidity at 340 nm)). Conditions: 10 μM compound, 30 minute data point, vs 1% DMSO control.
Format: biochemical
Experimental: Briefly, tubulin polymerization is a kinetic process that is temperature-dependent and requires GTP and was performed as follows. Soluble tubulin dimers polymerize into microtubules upon warming, and polymerization in vitro correlates with an increase in turbidity (measured at 340 nm). Lyophilized bovine tubulin (HTS Tubulin—97% tubulin, <3% MAPs—Cytoskeleton Inc.) was ressuspended in G-PEM buffer (80 mM PIPES pH 7, 1 mM EGTA, 1 mM MgCl2, 1 mM GTP, 5% glycerol) to a final concentration of 3 mg/ml and kept at 4° C. Compounds in 100× stock solutions in DMSO were dotted to pre-warmed 96-well plates (Corning Costar 3696), the plates were transferred to a 37° C. plate reader (SPECTRAmax Plus, Molecular Devices), cold tubulin was added to the wells, and the plates were shaken for mixing. The absorbance at 340 nm was determined at one minute intervals for 30 minutes. Kinetic curves with 30 points each were collected for each compound, and the dynamic range was between 0 and 0.4 OD units. The percentage inhibition values were calculated using the 30 minute data point and based on control samples (treated with 1% DMSO only). The assay is a modified version of the HTS kit sold by Cytoskeleton (1830 S. Acoma St., Denver, Colo.), adapted to maximize throughput and reduce time, without reduction in dynamic range or sensitivity, while retaining the ability to detect compounds that inhibit or enhance tubulin polymerization.
Tubulin polymerization is a kinetic process that is temperature-dependent and requires GTP. Soluble tubulin dimers polymerize into microtubules upon warming, and polymerization in vitro correlates with an increase in turbidity (measured at 340 nm). Liophilized bovine tubulin (HTS Tubulin—97% tubulin, <3% MAPs—Cytoskeleton Inc.) was ressuspended in G-PEM buffer (80 mM PIPES pH 7, 1 mM EGTA, 1 mM MgCl2, 1 mM GTP, 5% glycerol) to a final concentration of 3 mg/ml and kept at 4° C. Compounds in 100× stock solutions in DMSO were dotted to pre-warmed 96-well plates (Corning Costar 3696), the plates were immediately transferred to a 37° C. plate reader (SPECTRAmax Plus, Molecular Devices), cold tubulin was added to the wells, plates were shaken for mixing, and absorbance at 340 nm was read every minute for 30 minutes. Kinetic curves with 30 points each were collected for each compound, and the dynamic range was between 0 and 0.4 OD units. Percentage inhibition values were calculated using the 30 minute data point, based on control samples (treated with 1% DMSO only). This assay is a modified version of the HTS kit sold by Cytoskeleton, adapted to maximize throughput and reduce time, without reduction in dynamic range or sensitivity, while retaining the ability to detect compounds that inhibit or enhance tubulin polymerization.
For `COc1ccc(CNc2ncccc2-c2nnc(Nc3ccc4c(c3)OCO4)o2)cc1OC` [Compound 158, {3-[5-(Benzo[1,3]dioxol-5-ylamino)-[1,3,4]oxadiazol-2-yl]-pyridin-2-yl}-(3,4-dimethoxy-benzyl)-amine], the “Tubulin Assay: percent inhibition at 10 μM based on 30 minute data” value (“Tubulin Assay: percent inhibition” below) was 90%. For `COc1cccc(Nc2ncc(-c3ccccc3NCc3cc(OC)cc(OC)c3)o2)c1` [Compound 251, {5-[2-(3,5-Dimethoxy-benzylamino)-phenyl]-oxazol-2-yl}-(3-methoxy-phenyl)-amine], the “Tubulin Assay: percent inhibition” value was 30%. `c1ccc(-c2nnc(Nc3ccc4c(c3)OCCO4)o2)c(NCc2ncc[nH]2)c1` [Compound 220, (2,3-Dihydro-benzo[1,4]dioxin-6-yl)-(5-{2-[(1H-imidazol-2-ylmethyl)-amino]-phenyl}-[1,3,4]oxadiazol-2-yl)-amine] was tested, and the “Tubulin Assay: percent inhibition” value was 79%. With `COc1cccc(Nc2ncc(-c3ccccc3OCc3ccncc3)o2)c1` [Compound 256, (3-Methoxy-phenyl)-{5-[2-(pyridin-4-ylmethoxy)-phenyl]-oxazol-2-yl}-amine] the “Tubulin Assay: percent inhibition” value was 50%. In the case of `COc1cc(Nc2nnc(-c3cccnc3NCc3ccc(F)c(F)c3)o2)cc(OC)c1OC` [Compound 167, (3,4-Difluoro-benzyl)-{3-[5-(3,4,5-trimethoxy-phenylamino)-[1,3,4]oxadiazol-2-yl]-pyridin-2-yl}-amine], the “Tubulin Assay: percent inhibition” value is reported as 99%. `COc1ccc(Nc2nnc(-c3cccnc3Nc3ccc4cn[nH]c4c3)[nH]2)c(OC)c1` [Compound 22, {3-[5-(2,4-Dimethoxy-phenylamino)-4H-[1,2,4]triazol-3-yl]-pyridin-2-yl}-(1H-indazol-6-yl)-amine] was tested, and the “Tubulin Assay: percent inhibition” value was 24%. `CN(C)c1ccc(-c2nnc(Nc3ccc4c(c3)OCCO4)o2)c(NCc2ccccn2)c1` [Compound 230, (2,3-Dihydro-benzo[1,4]dioxin-6-yl)-(5-{4-dimethylamino-2-[(pyridin-2-ylmethyl)-amino]-phenyl}-[1,3,4]oxadiazol-2-yl)-amine] was tested, and the “Tubulin Assay: percent inhibition” value was 45%. With `Cn1nc(-c2cccnc2NCc2ccncc2)nc1Nc1ccc2c(c1)OCO2` [Compound 70, {3-[5-(Benzo[1,3]dioxol-5-ylamino)-1-methyl-1H-[1,2,4]triazol-3-yl]-pyridin-2-yl}-pyridin-4-ylmethyl-amine] the “Tubulin Assay: percent inhibition” value was 32%. `COc1cccc(-c2nnc(-c3ccccc3NCc3ccc4[nH]cnc4c3)[nH]2)c1` [Compound 137, (1H-Benzoimidazol-5-ylmethyl)-{2-[5-(3-methoxy-phenyl)-4H-[1,2,4]triazol-3-yl]-phenyl}-amine] was tested, and the “Tubulin Assay: percent inhibition” value was 28%. In the case of `c1cncc(CCNc2ncccc2-c2nnc(Nc3ccc4c(c3)OCCO4)o2)c1` [Compound 201, {3-[5-(2,3-Dihydro-benzo[1,4]dioxin-6-ylamino)-[1,3,4]oxadiazol-2-yl]-pyridin-2-yl}-(2-pyridin-3-yl-ethyl)-amine], the “Tubulin Assay: percent inhibition” value is reported as 23%. In the case of `Cc1cc(C)cc(CS(=O)(=O)Nc2ccccc2-c2nnc(Nc3ccc4c(c3)OCO4)o2)c1` [Compound 240, N-{2-[5-(Benzo[1,3]dioxol-5-ylamino)-[1,3,4]oxadiazol-2-yl]-phenyl}-C-(3,5-dimethyl-phenyl)-methanesulfonamide], the “Tubulin Assay: percent inhibition” value is reported as 20%. `FC(F)(F)c1cccc(-c2nnc(-c3ccccc3NCc3ccc4c(c3)OCCO4)[nH]2)c1` [Compound 150, (2,3-Dihydro-benzo[1,4]dioxin-6-ylmethyl)-{2-[5-(3-trifluoromethyl-phenyl)-4H-[1,2,4]triazol-3-yl]-phenyl}-amine] was tested, and the “Tubulin Assay: percent inhibition” value was 24%. In the case of `FC(F)(F)c1cccc(-c2nnc(-c3cccnc3NCc3ccc4c(c3)OCO4)[nH]2)c1` [Compound 83, Benzo[1,3]dioxol-5-ylmethyl-{3-[5-(3-trifluoromethyl-phenyl)-4H-[1,2,4]triazol-3-yl]-pyridin-2-yl}-amine], the “Tubulin Assay: percent inhibition” value is reported as 25%. For `N#Cc1ccc(S(=O)(=O)Nc2ccccc2-c2nnc(Nc3ccc4c(c3)OCCO4)o2)cc1` [Compound 242, 4-Cyano-N-{2-[5-(2,3-dihydro-benzo[1,4]dioxin-6-ylamino)-[1,3,4]oxadiazol-2-yl]-phenyl}-benzenesulfonamide], the “Tubulin Assay: percent inhibition” value was 92%. With `COc1cccc(Nc2nnc(-c3cccnc3NCC3COCCO3)[nH]2)c1` (stereo not shown) [Compound 46, [1,4]Dioxan-2-ylmethyl-{3-[5-(3-methoxy-phenylamino)-4H-[1,2,4]triazol-3-yl]-pyridin-2-yl}-amine] the “Tubulin Assay: percent inhibition” value was 25%. `c1cncc(COc2ccccc2-c2cnc(Nc3ccc4c(c3)OCCO4)o2)c1` [Compound 254, (2,3-Dihydro-benzo[1,4]dioxin-6-yl)-{5-[2-(pyridin-3-ylmethoxy)-phenyl]-oxazol-2-yl}-amine] was tested, and the “Tubulin Assay: percent inhibition” value was 95%. With `COc1cc(CNc2ccccc2-c2nnc(-c3cccc(Br)c3)[nH]2)cc(OC)c1` [Compound 151, {2-[5-(3-Bromo-phenyl)-4H-[1,2,4]triazol-3-yl]-phenyl}-(3,5-dimethoxy-benzyl)-amine] the “Tubulin Assay: percent inhibition” value was 42%. With `COc1cccc(CNc2ncccc2-c2nnc(Nc3ccc4c(c3)OCCO4)[nH]2)c1` [Compound 52, {3-[5-(2,3-Dihydro-benzo[1,4]dioxin-6-ylamino)-4H-[1,2,4]triazol-3-yl]-pyridin-2-yl}-(3-methoxy-benzyl)-amine] the “Tubulin Assay: percent inhibition” value was 35%. For `COc1cc(Nc2ncccc2-c2nnc(N)o2)cc(OC)c1` [Compound 243a, [3-(5-Amino-[1,3,4]oxadiazol-2-yl)-pyridin-2-yl]-(3,5-dimethoxy-phenyl)-amine], the “Tubulin Assay: percent inhibition” value was 46%. In the case of `COc1cccc(-c2nnc(-c3cccnc3NCc3ccco3)[nH]2)c1` [Compound 95, Furan-2-ylmethyl-{3-[5-(3-methoxy-phenyl)-4H-[1,2,4]triazol-3-yl]-pyridin-2-yl}-amine], the “Tubulin Assay: percent inhibition” value is reported as 41%. `CN(C)c1ccc(-c2nnc(Nc3ccc4c(c3)OCCO4)o2)c(NCc2ccncc2)c1` [Compound 231] was tested, and the “Tubulin Assay: percent inhibition” value was 28%. `Nc1ccccc1-c1nnc(Nc2ccc3c(c2)OCO3)o1` [Compound 237a, [5-(2-Amino-phenyl)-[1,3,4]oxadiazol-2-yl]-benzo[1,3]dioxol-5-yl-amine] was tested, and the “Tubulin Assay: percent inhibition” value was 53%. With `COc1cc(CNc2ccccc2-c2nnc(-c3cccc(OC(F)(F)F)c3)[nH]2)cc(OC)c1` [Compound 143, (3,5-Dimethoxy-benzyl)-{2-[5-(3-trifluoromethoxy-phenyl)-4H-[1,2,4]triazol-3-yl]-phenyl}-amine] the “Tubulin Assay: percent inhibition” value was 46%. With `c1cncc(CCNc2ncccc2-c2nnc(Nc3ccc4c(c3)OCO4)o2)c1` [Compound 200, {3-[5-(Benzo[1,3]dioxol-5-ylamino)-[1,3,4]oxadiazol-2-yl]-pyridin-2-yl}-(2-pyridin-3-yl-ethyl)-amine] the “Tubulin Assay: percent inhibition” value was 68%. For `COc1cc(CNc2ccccc2-c2nnc(-c3cccc(OC)c3)[nH]2)cc(OC)c1` [Compound 135, (3,5-Dimethoxy-benzyl)-{2-[5-(3-methoxy-phenyl)-4H-[1,2,4]triazol-3-yl]-phenyl}-amine], the “Tubulin Assay: percent inhibition” value was 23%.
